Where two headings read alike, the source gives them in different places. A value given as a limit tells only on which side of the number the result lay.

These results are taken from article PMC11154460, “Effects of Aqueous Boundary Layers and Paracellular Transport on the Efflux Ratio as a Measure of Active Transport Across Cell Layers” (Pharmaceutics, 2024).

For series [1], the target named is T1, human P-gp (Homo sapiens, UniProt P08183). The experiment in a line: Bi-directional transport (monolayer efflux) study across MDCK-MDR1 cell monolayers. The conditions noted are these: for ER: HPS conditions.
T1 sequence (P08183 whole entry): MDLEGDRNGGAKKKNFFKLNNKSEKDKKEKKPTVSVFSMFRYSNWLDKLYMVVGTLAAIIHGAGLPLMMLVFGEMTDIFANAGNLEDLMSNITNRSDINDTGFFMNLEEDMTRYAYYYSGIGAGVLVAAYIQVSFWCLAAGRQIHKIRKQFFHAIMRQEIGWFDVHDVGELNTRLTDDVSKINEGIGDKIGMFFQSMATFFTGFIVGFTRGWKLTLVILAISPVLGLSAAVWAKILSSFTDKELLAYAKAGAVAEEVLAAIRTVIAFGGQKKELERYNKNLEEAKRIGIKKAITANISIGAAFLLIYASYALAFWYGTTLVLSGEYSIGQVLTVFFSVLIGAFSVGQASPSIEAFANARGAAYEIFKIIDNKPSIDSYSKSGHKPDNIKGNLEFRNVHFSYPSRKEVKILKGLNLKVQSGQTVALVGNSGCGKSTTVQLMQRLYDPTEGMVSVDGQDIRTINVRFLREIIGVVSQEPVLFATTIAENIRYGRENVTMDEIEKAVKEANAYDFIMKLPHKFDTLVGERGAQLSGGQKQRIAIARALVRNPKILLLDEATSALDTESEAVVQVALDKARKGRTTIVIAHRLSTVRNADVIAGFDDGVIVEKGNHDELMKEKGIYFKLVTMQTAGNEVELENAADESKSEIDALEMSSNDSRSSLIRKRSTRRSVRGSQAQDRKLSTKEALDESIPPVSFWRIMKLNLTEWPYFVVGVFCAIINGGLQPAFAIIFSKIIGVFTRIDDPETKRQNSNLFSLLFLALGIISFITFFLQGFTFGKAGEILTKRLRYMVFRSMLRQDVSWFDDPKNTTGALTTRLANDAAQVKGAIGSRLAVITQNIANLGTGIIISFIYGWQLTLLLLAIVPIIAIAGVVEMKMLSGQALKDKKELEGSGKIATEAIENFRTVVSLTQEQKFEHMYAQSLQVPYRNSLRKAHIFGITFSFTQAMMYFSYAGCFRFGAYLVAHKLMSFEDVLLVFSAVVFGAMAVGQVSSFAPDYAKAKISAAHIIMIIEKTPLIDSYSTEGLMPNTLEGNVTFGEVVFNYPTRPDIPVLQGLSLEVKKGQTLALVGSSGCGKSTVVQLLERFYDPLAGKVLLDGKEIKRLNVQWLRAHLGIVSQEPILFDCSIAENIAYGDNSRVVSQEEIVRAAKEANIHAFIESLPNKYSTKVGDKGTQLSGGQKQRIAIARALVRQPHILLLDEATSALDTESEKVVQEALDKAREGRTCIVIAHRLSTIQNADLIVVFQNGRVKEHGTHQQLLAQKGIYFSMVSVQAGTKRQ
Description: (§1) As such, for this study, MDCK-II-MDR1 cells transfected with human MDR1 for P-gp expression were obtained from The Netherlands Cancer Institute (Amsterdam, The Netherlands).
(§2) For transport experiments, MDCK-MDR1 cells were used between passages 20 and 40. Cells were seeded onto 12-well PET inserts (CellQART, Northeim, Germany; pore size: 0.4 µm; filter thickness: 11.5 µm) at a density of 1.5 × 10^5 cells/insert. Inserts with a high porosity of 100 × 10^6 pores/cm ​^2 or low porosity of 2 × 10 ​^6 pores/cm ​^2 were used. After seeding, cells were maintained as described in Section 3.1.2 for 4 days to ensure confluent cell monolayer formation. The cell medium was exchanged one day before the transport experiments were performed. Prior to the transport experiments, the inserts were washed with Hank’s balanced salt solution (HBSS) to remove residual DMEM. […] For all other inserts, no inhibitor was used.
(§3) The apical-to-basolateral ( A→B direction) as well as the basolateral-to-apical ( B→A direction) transport rates of the test compounds were determined in duplicate with varying stirring and filter conditions. The three conditions tested were as follows: high-porosity filters, stirred (HPS); high-porosity filters, unstirred (HPU); and low-porosity filters, stirred (LPS). The transport buffer was HBSS with 25 mM HEPES at pH 7.4. Stock solutions were prepared in the transport buffer, and all solutions were pre-warmed to 37 °C. […] The pHs of the buffer and stock solutions prior to the experiment as well as the pHs of all samples after experiment completion were controlled with a rapid pH automated pH meter (Hudson Robotics, Inc., Springfield, NJ, USA). The pHs remained within a range of ±0.15.
(§4) Inserts were used in 12-well plates (TPP Techno Plastic Products AG, Trasadingen, Switzerland), the basolateral compartment volume was 1.6 mL, and the apical compartment volume was 0.5 mL. The transport experiments were initiated by replacing the HBSS with transport buffer and the test compound solution.
(§5) For measurement of transport in the A→B direction: Inserts were placed in 12-well plates containing transport buffer in the basolateral compartment, after which, the test compound solution was added to the apical compartment. At every sampling step, each insert was placed into a new well containing fresh, warmed assay buffer, and the old buffer was sampled. Sampling occurred at four consistent time intervals.
(§6) For measurement of transport in the B→A direction: Inserts were placed in 12-well plates containing the test compound solution in the basolateral compartment (donor), after which, transport buffer was added to the apical compartment. At each sampling time step, 300 μ L was sampled from the apical compartment (the maximum amount that could be removed without disturbing the cell layer) and replaced with an equal volume of warmed, fresh transport buffer. Sampling occurred at four consistent time intervals. Time intervals for sampling were determined uniquely for each compound and direction measured to ensure that sink conditions would be maintained throughout the experiment.
Series [2] concerns the target T2, P-gp (MDR1) (Homo sapiens, UniProt P08183). Described as above. The conditions noted are these: human, HPS conditions; for Papp A→B / Papp B→A: recovery-corrected mean ± SD, n = 3; for recovery: MDCK-MDR1 cell monolayers.
Description: as §1, §2, §3, §4, §5, §6
The target of series [3] is T2, P-gp (MDR1). Description: in vitro. The conditions noted are these: for efflux ratio: MDCK-MDR1, pH 7.4, ER (Papp,B→A over Papp,A→B); for efflux ratio / Papp A→B / Papp B→A: pH 7.4 ISO-pH, 12 μM (loperamide 10 μM); for Papp A→B: MDCK-MDR1, pH 7.4, Papp,A→B; for Papp A→B / Papp B→A: recovery-corrected mean ± SD; for Papp B→A: MDCK-MDR1, pH 7.4, Papp,B→A; for recovery: pH 7.4, Recovery, pH 7.4, MDCK-MDR1, 12 μM (loperamide 10 μM).
Description: as §1, §2, §3, §4, §5, §6

For series [4], the target named is T1, human P-gp. The conditions noted are these: MDCK-MDR1, pH 7.4.
Description: as §1, §2, §3, §4, §5, §6
Where [5] appears, read: HPS: high-porosity filter, stirred.
Where [6] appears, read: HPU: high-porosity filter, unstirred.
The mark [7] stands for this setting: LPS: low-porosity filter, stirred.

T2 sequence (P08183 whole entry): as above

As for `COc1cccc2c1C(=O)c1c(O)c3c(c(O)c1C2=O)C[C@@](O)(C(=O)CO)C[C@@H]3O[C@H]1C[C@H](N)[C@H](O)[C@H](C)O1` [Doxorubicin, doxorubicin], the ER entry at human P-gp [1] (pHext 6 (ISO-pH)) was “one”; on human P-gp [1] (pHext 7 (ISO-pH)), 6.5; at human P-gp [1] (pHext 7 (ISO-pH), listed as doxorubicin) it was over 2. Moreover, the efflux ratio at P-gp (MDR1) [2] (MDCK-MDR1, pH 6, ER, pHext 6 (ISO-pH)) came out at 1.6. Besides, the Papp A→B stood at 0.14 ± 0.04 ×10⁻⁶ cm/s at P-gp (MDR1) [2] (MDCK-MDR1, pH 6, Papp,A→B, pHext 6 (ISO-pH)) and 0.12 ± 0.03 ×10⁻⁶ cm/s at P-gp (MDR1) [2] (MDCK-MDR1, pH 7, Papp,A→B, pHext 7 (ISO-pH)). For the same compound, the Papp B→A was 0.23 ± 0.08 ×10⁻⁶ cm/s at P-gp (MDR1) [2] (MDCK-MDR1, pH 6, Papp,B→A, pHext 6 (ISO-pH)) and 0.78 ± 0.36 ×10⁻⁶ cm/s at P-gp (MDR1) [2] (MDCK-MDR1, pH 7, Papp,B→A, pHext 7 (ISO-pH)). For the same compound, the recovery lay in the range of 89.3 to 95.3% at P-gp (MDR1) [2] (pH 6, Recovery, pHext 6 (ISO-pH)) and 87.8 to 93.1% on P-gp (MDR1) [2] (pH 7, Recovery, pHext 7 (ISO-pH)).
As for `CN(C)C(=O)C(CCN1CCC(O)(c2ccc(Cl)cc2)CC1)(c1ccccc1)c1ccccc1` [Loperamide, loperamide], at P-gp (MDR1) [3] (setting [5]), the efflux ratio was found to be 2.7 ± 0.73, the apical-to-basolateral permeability (Papp A→B) turned out to be 46.7 ± 5.03 ×10⁻⁶ cm/s, the Papp B→A stood at 126 ± 27.8 ×10⁻⁶ cm/s and the recovery fell in the range of 75 to 88.1%. Further, at P-gp (MDR1) [3] (setting [6]), the efflux ratio turned out to be 2.8 ± 0.87, the Papp A→B worked out at 9.8 ± 2.84 ×10⁻⁶ cm/s, the Papp B→A stood at 29.2 ± 3.31 ×10⁻⁶ cm/s and the recovery was in the range of 62.3 to 81.3%. In addition, at P-gp (MDR1) [3] (setting [7]), the efflux ratio was 3.2 ± 0.91, the Papp A→B turned out to be 5.65 ± 0.42 ×10⁻⁶ cm/s, the Papp B→A stood at 15.9 ± 4.24 ×10⁻⁶ cm/s and the recovery lay in the range of 69.2 to 86.1%. The “mean ERs” value at human P-gp [4] is given as “greater than two”.
With `C=C[C@H]1C[N@@]2CC[C@H]1C[C@@H]2[C@@H](O)c1ccnc2ccc(OC)cc12` [Quinidine, quinidine], the “mean ERs” value on human P-gp [1] (over the conditions HPS, LPS, HPU, pH 7.4) is given as “greater than two”.
